Test results reported in PubChem BioAssay AID2305 (GlaxoSmithKline (GSK), 2010).

Test system: P. falciparum 3D7 growth, pLDH absorbance
Test: blood-stage malaria parasite growth potency – strain 3D7, dose response (AID 2305)

Row | SMILES | IC50
1 | C=CCc1cc(SC)ccc1Oc1ccc(N)cc1 | 740 nM
2 | C[C@@H](N)C#Cc1cc2c(Nc3ccc(OCc4cccc(F)c4)c(Cl)c3)ncnc2s1 | 1060 nM
3 | Fc1c(CNCC2CCN(CC3CCCCC3)CC2)cccc1C(F)(F)F | 900 nM
4 | CC[C@H](NC(=O)c1c(N)c(-c2sccc2Cl)nc2ccccc12)c1ccccc1 | 910 nM
5 | c1cc(CN2CCN(CCN3CCOCC3)CC2)cc(-c2csc(-c3nc4ccccc4[nH]3)c2)c1 | 450 nM
6 | O=C(NC1CCN(Cc2ccccc2)CC1)c1cccc(Nc2nc(-c3ccccc3)cs2)c1 | 1030 nM
7 | Cc1ccc(Oc2cnn(C)c(=O)c2Nc2cccc(C(=O)NCCc3ccccn3)c2)c(C)c1 | 490 nM
8 | Cc1cccc2[nH]c(-c3ccc(-c4ccc(NC(=O)Nc5ccc(F)c(F)c5F)cc4)s3)nc12 | 180 nM
9 | Cc1cccc2c(N=NC(=S)N(C)C)c(O)[nH]c12 | 750 nM
10 | COc1cc(F)c2ncc(C#N)c(CCN3CCC(NCc4ccc5c(c4)OCCO5)CC3)c2c1 | 430 nM
11 | COc1cc(OC)c(OC)cc1C=NNc1cc(C)nc2ccccc12 | 300 nM
12 | NC1CCN(Cc2cccc(-c3ccc(-c4nc5ccc(F)cc5[nH]4)cc3)c2)C1 (stereo unspecified) | 600 nM
13 | Cc1cccc(OC(C)C(=O)Nc2cc(C(F)(F)F)ccc2N2CCOCC2)c1 (stereo unspecified) | 240 nM
14 | CC(O)CNc1nc2ccccc2n1CC(=O)Nc1cccc(C(=O)Nc2cccc(C(F)(F)F)c2)c1 (stereo unspecified) | 100 nM
15 | COc1ccc(-c2cccc(NC(=O)c3cccc(C#N)c3)c2)cc1CN(C)CCO | 820 nM
16 | CCn1c(-c2nonc2N)nc2c(-c3cccc(NC(=O)Nc4cccc(Cl)c4)c3)ncc(OCCCN)c21 | 940 nM
17 | CCC(C)(C)c1ccc(OCC(O)CN2CCCCC2)c(C(C)(C)CC)c1 (stereo unspecified) | 1300 nM
18 | CCc1ccc(NC(=O)c2cccc(CN3CCCN(Cc4cccc(O)c4)CC3)c2)cc1 | 890 nM
19 | COC(=O)c1cccc(CNCc2ccc(-c3ccc(-c4nc5c(C)cccc5[nH]4)s3)cc2)c1 | 400 nM
20 | c1ccc(COc2ccc(Cn3ccc(-c4ccc(-n5ccnc5)cc4)n3)cc2)cc1 (tested in a mixture with another compound) | 1020 nM
21 | COc1ccc2nccc([C@@H](O)CN3CCC(NC(=O)c4ccc(Cl)c(Cl)c4)CC3)c2c1 | 610 nM
22 | c1ccc(-c2cc(NCCCCNc3cc(-c4ccccc4)nc4ccccc34)c3ccccc3n2)cc1 | 130 nM
23 | COc1ccc2nccc([C@@H](O)CN3CCC(NCc4cc5oc(=O)n(C)c5cc4F)CC3)c2c1 | 660 nM
24 | O=S(=O)(NCCN1CCCC1)c1cccc(-c2ccc(CNC3Cc4ccccc4C3)cc2)c1 | 660 nM

Row | SMILES | IC50
25 | CC1(C)N=C(N)N=C(N)N1OCCCNC(=O)c1ccc(C(=O)NCCCON2C(N)=NC(N)=NC2(C)C)cc1 | 20 nM
26 | O=C(Nc1ccc2c(c1)CCN2C1CCN(Cc2cccc3cc[nH]c23)C1)c1ccco1 (stereo unspecified) | 1210 nM
27 | O=C(NC=Nc1cc([N+](=O)[O-])c(-c2cccnc2)n1-c1ccc(O)cc1)c1ccccc1 | 300 nM
28 | CC1(C)CCNc2cc(NC(=O)c3ccc(-c4ncccc4C(F)(F)F)cc3)ccc21 | 900 nM
29 | CC(C)c1ccc(S(=O)(=O)N(c2ccc3c(c2)OCO3)C2CCN(Cc3ccccc3)C2)cc1 (stereo unspecified) | 350 nM
30 | N=c1n(CCN2CCCC2)c2ccccc2n1CC(O)c1ccc(Cl)c(Cl)c1 (stereo unspecified) | 280 nM
31 | CCc1ccc(O)c(-c2cc(C(=O)Nc3cccnc3)[nH]n2)c1 | 690 nM
32 | CCOc1ccc(-c2nonc2NC(=O)c2cccs2)cc1OCC | 760 nM
33 | CCc1ccc(NC(=O)c2ccc(CN3CCCN(Cc4cccc(C)c4)CC3)cc2)cc1 | 1130 nM
34 | O=[N+]([O-])c1cccc(CNCC2CCN(Cc3ccc(Cl)c(Cl)c3)CC2)c1 | 910 nM
35 | Cc1ccc(NC(=O)c2nc(N3CCN(c4ccncc4)CC3)ccc2Cl)cc1F | 810 nM
36 | NC(=O)c1cccc(Nc2nccc(Nc3ccc(Oc4c(Cl)cccc4Cl)c(Cl)c3)n2)c1 | 870 nM
37 | O=c1cc(NCCCNC2CCc3ccc(Cl)cc32)[nH]c2ccccc12 (stereo unspecified) | 860 nM
38 | OCC1CCN(Cc2ccc(-c3ccc(-c4nc5ccc(C(F)(F)F)cc5[nH]4)cc3)cc2)CC1 | 700 nM
39 | CCOc1cc(CC)ccc1C1CCN(CCCCNC(=O)c2ccc(NC(=O)c3ccc(C#N)cc3)cc2)CC1 | 500 nM
40 | CCCCN1CCCN(Cc2cccc(NC(=O)c3ccc(-c4ccccc4)cc3)c2)CC1 | 1030 nM
41 | CO/C(=C\C=C\c1cc2cc(Cl)c(Cl)cc2[nH]1)C(=O)NCCCN1CCC(c2ccccc2)CC1 | 910 nM
42 | CN1CC=C(c2c[nH]c3ccc(-c4ccccc4)cc23)CC1 | 770 nM
43 | O=C(Nc1ccc(Cl)cc1)N[C@H]1CCN(Cc2ccc(OCCCN3CCCCC3)cc2)C1 | 670 nM
44 | Cc1ccc(S(=O)(=O)N(CCCNCc2cccc(O)c2)c2ccccc2)cc1 | 770 nM
45 | Cn1ccc2c3c(N)nc(N)nc3ccc21 | 900 nM
46 | COc1cc(Nc2nccc(NCC(O)c3ccc(C(F)(F)F)cc3)n2)cc(OC)c1OC (stereo unspecified) | 920 nM
47 | COc1cccc(NC(=O)NC2CCN(CCCCCNC(=O)/C=C/c3ccc(Cl)c(Cl)c3)CC2)c1 | 780 nM
48 | CCOc1cc(C(=O)Nc2ccc3nc(N(CC)CC)cc(C)c3c2)cc(OCC)c1OCC | 700 nM

Row | SMILES | IC50
49 | CN1CCN=C1c1ccc(NC(=O)Nc2ccc(C3=NCCN3C)cc2)cc1 | 380 nM
50 | Cc1cccc(C(=O)Nc2ccc(N3CCCN(Cc4cccc(O)c4)CC3)cc2)c1 | 1420 nM
51 | Cc1ccccc1C1CCN(C2CCC(NC(=O)c3ccc(-c4ccccc4F)o3)CC2)CC1 (stereo unspecified) | 1050 nM
52 | CCCCSc1nc2c(c(=O)n1Cc1ccco1)C1(CCCCC1)Cc1ccccc1-2 | 960 nM
53 | NC1=NC(c2ccccc2)(c2ccccc2)C(=O)N1CCCCc1ccccc1 | 760 nM
54 | CCCCCc1cc(OC(=O)CCCN(CC)CC)c2c(c1)OC(C)(C)C=C2C1=CCN(Cc2ccc3ccccc3c2)CC1 | 160 nM
55 | CCOC(=O)c1cn(CC)c2cc(F)c(OC3C[C@@H]4CC[C@@]3(C)C4(C)C)cc2c1=O (stereo partly specified) | 930 nM
56 | COc1ccc(C2CC(c3ccccc3)=NN2C(=O)c2ccc(Br)o2)cc1 (stereo unspecified) | 320 nM
57 | CN1CC=C(c2csc3ccc(NC(=O)Nc4ccc(-c5ccncc5)c5ccccc45)cc23)CC1 | 800 nM
58 | Cc1cc(-c2ccc(Cl)cc2)c2c(N)c(C(=O)Nc3ccc(F)cc3)sc2n1 | 820 nM
59 | COc1ccc(Br)cc1/C=C/C(=O)Nc1ccc(C2CCCN(C)C2)cc1 (stereo unspecified) | 630 nM
60 | COC(=O)C1=CNC=C(C(=O)OC)C1c1ccc(Cl)c([N+](=O)[O-])c1 | 680 nM
61 | O=C(Nc1cccc(CN2CCN(C(=O)c3ccccc3)CC2)c1)c1cccs1 | 310 nM
62 | CC(C)(C)c1ccc(CN2CCCCC(NC(=O)c3cc(-c4cccc(F)c4)cs3)C2)cc1 (stereo unspecified) | 780 nM
63 | Cc1ccc(-c2nc(NC(=O)Nc3ccc(C(F)(F)F)cc3)sc2C)cc1Cl | 660 nM
64 | CNc1nc(NN=Cc2ccccc2Cl)nc(Nc2cccc(C(F)(F)F)c2)n1 | 920 nM
65 | c1cncc(-c2cc(N3CCCCC3)nc(-c3ccncc3)n2)c1 | 770 nM
66 | COc1cccc(Nc2nc(C)cc(Nc3cccc(C#N)c3)n2)c1 | 1080 nM
67 | CCCC(CNCc1cccc(OC(F)(F)F)c1)CNc1cc(=O)c2ccccc2[nH]1 (stereo unspecified) | 560 nM
68 | N[C@@H](CCNCc1ccc(-c2cccnc2)cc1)Cc1ccc(F)c(F)c1 | 800 nM
69 | c1ccc2c(c1)CN(Cc1cc3ccccc3[nH]1)CC1(CCN(Cc3c[nH]c4cnccc34)CC1)O2 | 310 nM
70 | COc1ccc(OC)c(-c2ccc(=O)n(CC(=O)Nc3cccc4ccccc34)n2)c1 | 900 nM
71 | O=S(=O)(NC1CCC(CN2CCC(c3c[nH]c4ccccc34)CC2)CC1)c1ccc(Cl)c(Cl)c1 (stereo unspecified) | 820 nM
